“And” between values parts separate entries of the source, which are not always exact repeats. Identical values can stand only once.
Tested on: NCI-H211 complex spheroid viability
Assay: Anticancer human tumor NCI-H211 cell line growth inhibition [LSD1];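 further: luminescent viability read after seven days of drug exposure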;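 on viability, T/C: 100% = DMSO vehicle control viability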
Details: for viability, T/C: stronger effect = lower value; for IC50: curve of compound
Text: Multicellular complex tumor spheroid response to LSD1 Inhibitor Iadademstat in combination with a variety of drugs and investigational agents in selected tumor cell lines
The current study was undertaken to assess response to LSD1 inhibitors in combination with standard-of-care drugs and investigational agents in solid tumor complex spheroid models as well as in the K-562 leukemia. Complex spheroids include a stromal component modeled by human endothelial cells (HUVEC) and fibroblasts modeled by human mesenchymal stem cells (MSCs). The concentration ranges selected for each drug and investigational agent were based upon clinically achievable concentrations if the clinical Cmax of the agent was known.
Compounds. The drugs and investigational agents used in this study are listed on Table 1. All of the agents used, including staurosporine (NSC755774) and gemcitabine (NSC613327), were obtained from the Developmental Therapeutics Program, NCI. FDA-approved anticancer drugs are available from the NCI at http://dtp.nci.nih.gov/branches/dscb/oncology_drugset_explanation.html. Drugs and investigational agents were >95% pure by proton nuclear magnetic resonance (NMR) and liquid chromatography/mass spectrometry (LC/MS). Stock solutions were prepared at 400x in DMSO, stored at -70 degrees C, and diluted in fresh medium prior to their use. The final concentration of DMSO in cell culture wells never exceeded 0.25% (v/v). The FDA-approved anticancer drug set is available from the Developmental Therapeutics Program at https://dtp.cancer.gov/organization/dscb/obtaining/available_plates.htm. All drugs and investigational agents were tested over a range starting from a high concentration at or near the clinical Cmax and decreasing in half-log increments. If the clinical Cmax for an agent had not been determined, the highest concentration tested was 10 microM.
Cell Lines. The patient-derived cancer cell (PDC) lines: 292921-168-R-J2-PDC, K24384-001-R-PDC, and 521955-158-R2-J5-PDC pancreatic carcinomas, 556581-035-R-J1 ovarian carcinoma, 324938-238-R-J1-PDC, 855422-203-R-J1-PDC and 883617-216-R-J1-PDC urothelial bladder carcinomas, 743489-274-T-PDC renal cell carcinoma, 138582-R-J1 Merkel cell tumor, K60290-347-R-J1 and K57222-313-R-J1-PDC glioblastomas, 653999-131-R-J2-PDC, LG0703-F948-PDC, and 349418-098-R-PDC non-small cell lung carcinomas, 885512-296-R-J2-PDC, 171881-019-R-J1-PDC breast carcinomas and 186277-243-T-J2-PDC and 233499-124-R-J2-PDC colon carcinomas were obtained from the NCI Patient-Derived Models Repository (PDMR, https://pdmr.cancer.gov). The established cell lines NCI/ADR-RES (RRID:CVCL_14520 and OVCAR-5 (RRID:CVCL_1628) ovarian carcinomas, 786-O (RRID:CVCL_1051) and A498 (RRID:CVCL_A498) renal cell carcinoma, NCI-H211 (ATCC, cat. CRL-5824; RRID:CVCL_1529), NCI-H196 (ATCC, cat. CRL-5823, RRID:CVCL_1509), SW 1271 (ATCC, cat. CRL-2177, RRID:CVCL_1716) and NCI-H1876 (ATCC, cat. CRL-5902, RRID:CVCL_1503) small cell lung carcinomas, MDA-MB-231 (RRID:CVCL_0062) and MDA-MB-468 (RRID:CVCL_0419)breast carcinomas (10-12). Pooled donor human umbilical vein endothelial cells (HUVEC, Lonza, cat. CC-2519) and human mesenchymal stem cells (hMSC, Lonza, cat. PT-2501) were purchased from Lonza (Walkersville, MD).
Cell Culture. All cells were maintained in an incubator at 37 degrees C and 5% CO2 with 95% humidity. The PDC lines were cultured according to standard operating procedures established by the NCI PDMR (https://pdmr.cancer.gov). Briefly all PDCs were thawed and cultured in Matrigel-coated flasks prepared with a working solution of 1X Ham's F-12 nutrient mix, without supplementation (Invitrogen, Waltham, MA, cat. 11765054), 100 U/mL penicillin-streptomycin (Invitrogen, cat. 15140122), and 2.5% Matrigel (Corning Inc., Corning, NY, cat. 354248) for the first three passages. […]

SMILES | IC50 | viability, T/C (compound 0.000316 µM) | viability, T/C (compound 0.001 µM) | viability, T/C (compound 0.00316 µM) | viability, T/C (compound 0.01 µM) | viability, T/C (compound 0.0316 µM) | viability, T/C (compound 0.1 µM) | viability, T/C (compound 0.316 µM) | viability, T/C (compound 1 µM) | viability, T/C (compound 3.16 µM) | viability, T/C (compound 10 µM) | viability, T/C (compound 0.00949 µM) | viability, T/C (compound 0.03 µM) | viability, T/C (compound 0.0949 µM) | viability, T/C (compound 0.3 µM) | viability, T/C (compound 0.949 µM) | viability, T/C (compound 3 µM) | viability, T/C (compound 0.000949 µM) | viability, T/C (compound 0.003 µM)
CC(C)CC(NC(=O)CNC(=O)c1cc(Cl)ccc1Cl)B1OC(=O)CC(CC(=O)O)(C(=O)O)O1 (stereo not drawn) | 14.4 nM and 8.63 nM | 125% and 105% | 114% and 102% | 112% and 115% | 65.5% and 41.5% | 16% and 14% | 3.55% and 4.35% |  |  |  |  |  |  |  |  |  |  |  | 
CC1(C)CCC(CN2CCN(c3ccc(C(=O)NS(=O)(=O)c4ccc(NCC5CCOCC5)c([N+](=O)[O-])c4)c(Oc4cnc5[nH]ccc5c4)c3)CC2)=C(c2ccc(Cl)cc2)C1 |  |  |  |  |  | 95.3% and 36.1% | 98.2% and 43.8% | 98.3% and 47.9% | 124% and 72.7% | 118% and 99.6% | 32.2% and 60.1% |  |  |  |  |  |  |  | 
CCN(c1cc(-c2ccc(CN3CCOCC3)cc2)cc(C(=O)NCc2c(C)cc(C)[nH]c2=O)c1C)C1CCOCC1 | > 3000 nM and 1390 nM |  |  |  |  |  |  |  |  |  |  | 122% and 86.1% | 108% and 75.3% | 100% and 68.3% | 97.3% and 54.6% | 96.4% and 52.2% | 93.8% and 47.7% |  | 
COc1cc(C2c3cc4c(cc3C(OC3OC5COC(C)OC5C(O)C3O)C3COC(=O)C23)OCO4)cc(OC)c1O (stereo not drawn) | 14.7 nM and < 9.49 nM |  |  |  |  |  |  |  |  |  |  | 71.3% and 48.3% | 15.2% and 13.1% | 2.55% and 6.21% | 2.41% and 5.04% | 2.11% and 6.22% | 2.35% and 5.42% |  | 
COc1cc(Nc2ncc3c(n2)-c2ccc(Cl)cc2C(c2c(F)cccc2OC)=NC3)ccc1C(=O)O | < 3.16 nM |  |  | 44.2% and 45.2% | 8.97% and 8.03% | 5.37% and 3.95% | 4.19% and 5.61% | 3.59% and 4.36% | 3.38% and 3.29% |  |  |  |  |  |  |  |  |  | 
COc1ccc([C@@H](O)c2cc(-c3ncnc4cc(N5CCOCC5)ccc34)c(F)cc2Cl)nn1 | 4700 nM and 4950 nM |  |  |  |  | 108% and 89.2% | 96.5% and 86.3% | 93.7% and 94.2% | 103% and 87.4% | 70.8% and 76.6% | 10.4% and 8.12% |  |  |  |  |  |  |  | 
Cn1ncnc1C1c2n[nH]c(=O)c3cc(F)cc(c23)NC1c1ccc(F)cc1 (stereo not drawn) | 2.79 nM and 2.01 nM | 102% and 103% | 94.9% and 82.6% | 44.8% and 29% | 5.27% and 6.62% | 8.07% and 5.97% | 3.43% and 6.43% |  |  |  |  |  |  |  |  |  |  |  | 
NC1CCC(NC2CC2c2ccccc2)CC1 (stereo not drawn) |  |  |  |  |  |  |  | 74.9% [middle of 4 runs] |  |  | 36.1% [middle of 23 runs] |  |  |  |  |  |  |  | 
Nc1ccn(C2OC(CO)C(O)C2(F)F)c(=O)n1 (stereo not drawn) | < 0.949 nM |  |  |  |  |  |  |  |  |  |  | 7.87% and 4.04% | 2.08% and 4.19% | 2.85% and 4.27% | 2.42% and 5% |  |  | 2.49% and 5.54% | 2.72% and 4.15%
Nc1ncn(C2CC(O)C(CO)O2)c(=O)n1 (stereo not drawn) | < 3.16 nM |  |  | 35.4% and 37.7% | 21.4% and 19% | 9.11% and 7% | 2.47% and 4.09% | 1.77% and 5.19% | 1.67% and 4.71% |  |  |  |  |  |  |  |  |  | 
Nc1ncn(C2CC(O)C(CO)S2)c(=O)n1 (stereo not drawn) | 1.89 nM and < 0.949 nM |  |  |  |  |  |  |  |  |  |  | 9.28% and 10.7% | 3.02% and 5.29% | 1.96% and 4.56% | 2.36% and 4.76% |  |  | 74.8% and 46.6% | 33.3% and 23.1%
O=C(C=Cc1cccc(S(=O)(=O)Nc2ccccc2)c1)NO | < 9.49 nM |  |  |  |  |  |  |  |  |  |  | 28.4% and 18.3% | 3.38% and 8.21% | 2.69% and 7.91% | 2.15% and 6.02% | 0.94% and 1.35% | 0.17% and 0.22% |  | 
O=C(C=Cn1cnc(-c2cc(C(F)(F)F)cc(C(F)(F)F)c2)n1)NNc1cnccn1 | < 3.16 nM and 4.13 nM |  |  | 45.9% and 53.7% | 24% and 37.6% | 11.7% and 14.6% | 4.91% and 5.02% | 1.61% and 2.32% | 1.37% and 2.1% |  |  |  |  |  |  |  |  |  | 

Further lines, with some results ahead:

IC50 | SMILES | viability, T/C (compound 0.000316 µM) | viability, T/C (compound 0.001 µM) | viability, T/C (compound 0.00316 µM) | viability, T/C (compound 0.01 µM) | viability, T/C (compound 0.0316 µM) | viability, T/C (compound 0.1 µM) | viability, T/C (compound 0.316 µM) | viability, T/C (compound 1 µM) | viability, T/C (compound 3.16 µM) | viability, T/C (compound 10 µM) | viability, T/C (compound 0.00949 µM) | viability, T/C (compound 0.03 µM) | viability, T/C (compound 0.0949 µM) | viability, T/C (compound 0.3 µM) | viability, T/C (compound 0.949 µM) | viability, T/C (compound 3 µM) | viability, T/C (compound 0.000949 µM) | viability, T/C (compound 0.003 µM)
2.13 nM and 2.1 nM | CC(C)CC(NC(=O)C(Cc1ccccc1)NC(=O)c1cnccn1)B(O)O (stereo not drawn) | 109% and 100% | 96.9% and 86.8% | 25.4% and 29.6% | 6.26% and 1.54% | 0.16% and 0.2% | 0.16% and 0.32% |  |  |  |  |  |  |  |  |  |  |  | 
> 10000 nM | CC(C)c1c(-c2ccccc2)nc2c(C#N)c[nH]n2c1=O |  |  |  |  | 104% and 81.5% | 127% and 88% | 103% and 68.7% | 114% and 68.7% | 98.9% and 67% | 97.3% and 75.2% |  |  |  |  |  |  |  | 
4.96 nM and < 3.16 nM | CC1COCCN1c1cc(-c2ccnn2C)c2ccnc(-c3ccn[nH]3)c2n1 (stereo not drawn) |  |  | 68.4% and 38.3% | 21.5% and 14% | 4.05% and 7.88% | 2.34% and 6.02% | 2.16% and 5.04% | 2.28% and 5.77% |  |  |  |  |  |  |  |  |  | 
299 nM and 405 nM | CC1COCCN1c1cc(C2(S(C)(=N)=O)CC2)nc(-c2ccnc3[nH]ccc23)n1 (stereo not drawn) |  |  |  |  | 84.3% and 102% | 72.6% and 81.8% | 49.4% and 63.4% | 20.4% and 14.6% | 4.23% and 5.02% | 2.56% and 2.74% |  |  |  |  |  |  |  | 
0.447 nM and 0.455 nM | CC[C@@]1(O)C(=O)OCc2c1cc1n(c2=O)Cc2cc3c(CN(C)C)c(O)ccc3nc2-1 | 66.6% and 67% | 11.4% and 13.2% | 2.8% and 5.22% | 2.3% and 5.28% | 2.56% and 5.04% | 0.87% and 3.38% |  |  |  |  |  |  |  |  |  |  |  | 
< 0.949 nM | CCc1c2c(nc3ccc(O)cc13)-c1cc3c(c(=O)n1C2)COC(=O)[C@]3(O)CC |  |  |  |  |  |  |  |  |  |  | 0.42% and 1.27% | 0.59% and 0.51% | 0.14% and 0.18% | 0.21% and 0.25% |  |  | 1.09% and 3.31% | 0.88% and 2.36%
< 9.49 nM | NS(=O)(=O)OCC1CC(n2ccc3c(NC4CCc5ccccc54)ncnc32)CC1O (stereo not drawn) |  |  |  |  |  |  |  |  |  |  | 27% and 23.2% | 11.8% and 10.5% | 2.66% and 3.81% | 6.35% and 1.26% | 0.58% and 0.97% | 0.31% and 0.53% |  | 
31.3 nM and 22.1 nM | Nc1ccccc1NC(=O)c1ccc(CNC(=O)OCc2cccnc2)cc1 |  |  |  |  |  |  |  |  |  |  | 106% and 110% | 51.8% and 28.6% | 5.07% and 4.05% | 1.34% and 3.99% | 0.93% and 2.1% | 0.2% and 0.22% |  | 
46.4 nM and 36.9 nM | O=C(c1cc(Cc2n[nH]c(=O)c3ccccc23)ccc1F)N1CCN(C(=O)C2CC2)CC1 |  |  |  |  | 59.8% and 54.5% | 30.3% and 22.6% | 6.95% and 9.45% | 3.01% and 7.35% | 2.95% and 7.77% | 2.77% and 6.06% |  |  |  |  |  |  |  | 

— PubChem BioAssay AID1918940 (Molecular Pharmacology Branch, DTP, NCI, 2023)
